Measured values: patent publication EP0821954A1, “Method for treating mental retardation” (ELI LILLY AND COMPANY, priority 1996, dated 1998)

Experiments:
5HT2C = molecular target: T1, 5HT2C (Homo sapiens, UniProt P28335); test: 5HT2C receptor affinity; type: binding; details: 5HT2C receptor subtype
T1 sequence (P28335 33-458): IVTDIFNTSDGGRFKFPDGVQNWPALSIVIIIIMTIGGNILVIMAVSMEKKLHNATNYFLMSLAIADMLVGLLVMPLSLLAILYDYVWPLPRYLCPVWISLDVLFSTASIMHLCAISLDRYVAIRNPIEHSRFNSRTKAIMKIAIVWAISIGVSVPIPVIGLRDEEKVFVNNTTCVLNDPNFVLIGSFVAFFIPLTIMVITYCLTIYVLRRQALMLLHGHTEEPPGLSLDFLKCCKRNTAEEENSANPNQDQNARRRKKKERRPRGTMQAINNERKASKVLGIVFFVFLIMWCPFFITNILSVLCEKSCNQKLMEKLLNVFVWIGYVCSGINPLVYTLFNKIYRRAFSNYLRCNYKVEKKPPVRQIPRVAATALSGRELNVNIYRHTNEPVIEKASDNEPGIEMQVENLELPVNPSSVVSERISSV

m4 receptors = m4 receptors (Homo sapiens, UniProt P08173); type: cell-based; details: CHO m4 cells treated with pertussis toxin
Chain of m4 receptors (P08173 whole entry): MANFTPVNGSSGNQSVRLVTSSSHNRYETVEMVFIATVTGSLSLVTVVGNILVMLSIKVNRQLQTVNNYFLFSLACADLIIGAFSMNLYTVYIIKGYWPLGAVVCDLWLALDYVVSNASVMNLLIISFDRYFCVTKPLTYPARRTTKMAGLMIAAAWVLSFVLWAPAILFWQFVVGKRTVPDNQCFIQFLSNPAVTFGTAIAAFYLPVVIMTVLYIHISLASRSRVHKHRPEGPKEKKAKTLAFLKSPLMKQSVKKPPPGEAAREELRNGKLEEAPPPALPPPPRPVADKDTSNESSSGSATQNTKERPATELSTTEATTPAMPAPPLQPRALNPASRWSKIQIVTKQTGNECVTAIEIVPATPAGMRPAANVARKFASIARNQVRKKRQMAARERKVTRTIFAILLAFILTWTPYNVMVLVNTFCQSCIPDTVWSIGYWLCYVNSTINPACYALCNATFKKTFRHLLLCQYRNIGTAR

[1] = molecular target: muscarinic cholinergic receptors; test: 3H-oxotremorine-M binding study; details: inhibition of binding of 3H-oxotremorine-M; read-out: inhibition costant (Ki)

CCCCCCOc1nsnc1C1=CCCN(C)C1 [Xanomeline, 3-(4-hexyloxy-1,2,5-thiadiazol-3-yl)-1,2,5,6-tetrahydro-1-methylpyridine]
Ki (5HT2C): 120 nM | formation of cAMP (m4 receptors): efficaciously and potently stimulated the formation of cAMP | Ki [1]: 2 nM
